Data taken from EP0414422A2, “2-Oxo-1-oxa-8-azaspiro [4,5] decane derivatives, processes for their preparation and pharmaceutical compositions thereof” (RICHTER GEDEON VEGYESZETI GYAR R.T., priority 1989, dated 1991).

Legend:
mice [1] = assay: Inhibition of the aggressive behaviour of the mice; type: in vivo; details: Mus musculus, po; male mice, p.o., 3 hours following the treatment, electric stimulation of 1 mA; read-out: Antiaggressive effect, ED₅₀
Protocol: (§1) Male CFLP mice with a body-weight of 18 to 25 g and male Hannover-Wistar rats with a body-weight of 160 to 180 g were used for the pharmacological investigations. The test compounds were orally administered in a 2% Tween-80 suspension. The pharmacological investigating methods used are described hereinafter.
4. Inhibition of the aggressive behaviour of the mice
The method described in J. Pharmacol. Expt. Therap. 125, 28 (1959) was used.
Pairs of male mice weighing 20 to 25 each were treated with the test compounds and then placed in cages. 3 hours following the treatment an aggressive behaviour was induced on the animals by using an electric stimulation of 1 mA current intensity. Each group consisted of 5 pairs of mice. The ED₅₀ values were calculated from the percentage of animal pairs showing no aggressive behaviour as a result of the treatment. (ED₅₀ value is the dose inhibiting the aggressive behaviour on 50% of the animals.)

aggregated mice = assay: Protective effect against the amphetamine group toxicity on aggregated mice; type: in vivo; details: Mus musculus; male CFLP mice, p.o., one hour before 21 mg/kg d-amphetamine intraperitoneally; surviving animals counted after 24 hours; read-out: Protection against amph. ED₅₀
Protocol: as §1
1. Protective effect against the amphetamine group toxicity on aggregated mice
The method described in Arch. Int. Pharmacodyn. 163, 79 (1966) was used.
The mice were treated with various doses of the test substances. After one hour following the above treatment, the animals were intraperitoneally given 21 mg/kg of d-amphetamine and then the groups consisting of 10 animals each were tightly packed together in plexiglass boses of 15x15x10 cm in size. After 24 hours had elapsed following the amphetamine treatment the surviving animals were counted. The ED₅₀ values of the substances were calculated from the percentage of the surviving animals. The ED₅₀ value is the dose protecting 50% of the animals from death.

mice [2] = assay: Measurement of the spontaneous body temperature; type: in vivo; details: 30 mg/kg orally, rectal temperature 5 hours following treatment, related to untreated control animals
Protocol: as §1
3. Measurement of the spontaneous body temperature
Groups consisting of 10 mice each were orally treated with 30 mg/kg doses of the test substances. After treatment the rectal temperature of the male mice was determined each hour for 5 hours. The average values of temperature decrease related to the body temperature of the untreated control animals (37.1±0.8 °C) 5 hours following treatment are given in Table 1.

Acute toxicity = details: male, Hannover-Wistar, rat, in vivo, po; rats, p.o., deaths observed for 14 days; read-out: LD₅₀
Protocol: as §1
Rats were treated with various doses of the test compounds. […] The LD₅₀ value, i.e. the dose causing the death of half of the animals, was determined from the percentage of the dead animals.

rats = assay: Inhibition of the conditioned avoidance response (CAR inhibition) on rats; type: in vivo; details: Rattus norvegicus, po; male Hannover-Wistar rats, p.o., treated 3 hours before the experiment; dose causing 50% inhibition of the conditioned avoidance response; read-out: CAR ED₅₀
Text: as §1
2. Inhibition of the conditioned avoidance response (CAR inhibition) on rats
The method of D. Bovet et al. (Neuropsychopharmacology, ed. R. Rothlin Vol. 2, p. 142, Elsevier Publishing Co. N.Y. 1961) was used.
Male rats weighing 160 to 180 g were conditioned in an automated 6-channel Shuttle box for 10 days. Each daily session consisted of 50 cycles and each one cycle lasted for 40 seconds. Within a single cycle an intermittent light stimulus for 15 seconds as conditioned stimulus, and an electric stimulus of 0.8 mA for 10 seconds as unconditioned stimulus, were used with an intersignal time of 15 seconds. When an animal changed its half-court during the conditioned stimulus period, the stimulus was abolished and the footshock was avoided (conditioned avoidance response; abbreviated: CAR). Animals with a performance of at least 80% on the 8th to 10th days of conditioning were considered to be useful for the study. 3 hours before the experiment the animals were treated with various doses of the test substances and the ED₅₀ value, i.e. the dose causing an 50% inhibition of the conditioned avoidance response of the animals, was determined. Groups consisting of 10 animals each were used for each dose.

Structure (SMILES)	ED50 (mice [1]) [mg/kg]	ED50 (aggregated mice) [mg/kg]	Decrease in the spontaneous temperature (mice [2]) [C°]	LD50 at 14 days (Acute toxicity) [mg/kg]	ED50 (rats) [mg/kg]
C=C1N(CC)C(=O)OC12CCN(CCCN1c3ccccc3Sc3ccc(Cl)cc31)CC2 [B, 8-[3-(2-chloro-10H-phenothiazin-10-yl)propyl]-3-ethyl-4-methylene-2-oxo-1-oxa-3,8-diazaspiro[4,5]decane]	10.9	1.6	-7.4	500	1.6
C=C1N(C)C(=O)OC12CCN(CCCN1c3ccccc3Sc3ccc(C(F)(F)F)cc31)CC2 [C, 3-methyl-4-methylene-2-oxo-8-[3-(2-trifluoromethyl-10H-phenothiazin-10-yl)propyl]-1-oxa-3,8-diazaspiro[4,5]decane]	1.2	0.7	-9.9	235	1.9
CN(C)CCCN1c2ccccc2Sc2ccc(Cl)cc21 [CPZ, 2-chloro-10-(3-dimethylaminopropyl)phenothiazine, reference compound]	4.3	7.2	-7.9	225	17.1
C=C1N(C)C(=O)OC12CCN(CCCN1c3ccccc3Sc3ccc(Cl)cc31)CC2 [Compound A, 8-[3-(2-chloro-10H-phenothiazin-10-yl)propyl]-3-methyl-4-methylene-2-oxo-1-oxa-3,8-diazaspiro[4,5]decane]	1.7	0.6	-8.8	353	6
C=C1N(CC)C(=O)OC12CCN(CCCN1c3ccccc3Sc3ccc(C(F)(F)F)cc31)CC2 [D, 3-ethyl-4-methylene-2-oxo-8-[3-(2-trifluoromethyl-10H-phenothiazin-10-yl)propyl]-1-oxa-3,8-diazaspiro[4,5]decane]	2.5	4.1	-8.2	500	6.8
C=C1N(CCC)C(=O)OC12CCN(CCCN1c3ccccc3Sc3ccc(Cl)cc31)CC2 [E]	2	1.8	-5.6	–	10.6
CN1C(=O)OC2(CCN(CCCN3c4ccccc4Sc4ccc(Cl)cc43)CC2)C1(C)O (centres unmarked) [F, 8-[3-(2-chloro-10H-phenothiazin-10-yl)propyl]-3,4-dimethyl-4-hydroxy-2-oxo-1-oxa-3,8-diazaspiro[4,5]decane]	–	0.7	-9.1	–	4.6
CCN1C(=O)OC2(CCN(CCCN3c4ccccc4Sc4ccc(Cl)cc43)CC2)C1(C)O (centres unmarked) [G, 8[3-(2-chloro-10H-phenothiazin-10-yl)propyl]-3-ethyl-4-hydroxy-4-methyl-2-oxo-1-oxa-3,8-diazaspiro[4,5]decane]	–	2.4	-8.1	–	6.9
CN1C(=O)OC2(CCN(CCCN3c4ccccc4Sc4ccc(C(F)(F)F)cc43)CC2)C1(C)O (centres unmarked) [H, 3,4-dimethyl-4-hydroxy-2-oxo-8-[3-(2-trifluoromethyl-10H-phenothiazin-10-yl)propyl]-1-oxa-3,8-diazaspiro[4,5]decane]	–	0.9	-9.6	–	3.1
CCCN1C(=O)OC2(CCN(CCCN3c4ccccc4Sc4ccc(C(F)(F)F)cc43)CC2)C1(C)O (centres unmarked) [I, 4-hydroxy-4-methyl-2-oxo-3-propyl-8-[3-(2-trifluoromethyl-10H-phenothiazin-10-yl)propyl]-1-oxa-3,8-diazaspiro[4,5]decane]	–	4.2	-7.0	–	5.6
